Laboratory results from US20110306597A1, “Nicotinamide Derivatives” (priority 2008, published 2011).

Each compound was assayed against human recombinant H-PGDS (Homo sapiens, UniProt O60760) (assay: Fluorescence Intensity h-PGDS TBA Enzyme Assay). Conditions: 1:175,000 human recombinant H-PGDS, highest inhibitor concentration typically 1 μM.
Type: biochemical
Description: Fluorescence Intensity h-PGDSTBA Enzyme Assay
Prostaglandin D Synthase (PGDS) converts the substrate prostaglandin H2 (PGH2) to prostaglandin D2. The depletion of PGH2 was measured via an Fe(II) reduction of the remaining PGH2 to malondialdehyde (MDA) and 12-HHT. The enzyme assay is based on the quantitative formation of a fluorescent complex from the non-fluorescent compounds MDA and 2-thiobarbituric acid (TBA), substantially as described in U.S. patent application publication US-2004/152148 by Lombardt.
The enzyme assay (31 μls) contained 100 mM Tris base pH 8.0, 100 μM MgCl2, 0.1 mg/ml IgG Rabbit serum, 5.0 μM PGH2 (Cayman; ethanol solution, #17020), 2.5 mM L-Glutathione (Sigma; reduced form #G4251), 1:175,000 human recombinant H-PGDS (from 1 mg/ml), 0.5% DMSO and inhibitor (varying concentration). Three μls of diluted inhibitor (dissolved in DMSO) was plated into a 384-well assay plate followed by a 25 μl addition of an enzyme solution containing h-PGDS, Tris, MgCl2, IgG and L-Glutathione. After preincubation of inhibitor and enzyme solution for 10 minutes at room temperature, the reaction was initiated with a 3 μl addition of substrate solution in 10 mM HCl. The reaction was terminated after 42 second by the addition (3 μl) of stop buffer containing FeCl2 and citric acid. After addition of 45.5 μls of TBA plates were heated for one hour in a 70 C oven. Plates were cooled at room temperature overnight and read on a plate reader the next day with excitation @ 530 nm and emission @ 565 nm.
IC50's of inhibitors were calculated with a 4-parameter fit using 11 inhibitor concentrations in duplicate with 3-fold serial dilutions. Controls on each plate included no inhibitor (zero % effect) and an inhibitor 10-fold in excess of its' IC50 (100% effect). The highest inhibitor concentration tested was typically 1 μM.

Sequence of human recombinant H-PGDS (O60760 whole entry): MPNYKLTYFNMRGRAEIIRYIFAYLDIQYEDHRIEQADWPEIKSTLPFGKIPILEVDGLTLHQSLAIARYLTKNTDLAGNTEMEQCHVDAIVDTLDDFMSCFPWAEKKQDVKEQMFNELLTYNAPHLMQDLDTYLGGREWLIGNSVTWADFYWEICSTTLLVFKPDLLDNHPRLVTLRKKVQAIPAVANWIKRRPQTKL

Row | IC50 [nM] | Structure (SMILES)
1 | 33.7 | C[C@@H](CNC(=O)c1ccc(-c2cccc(F)c2)nc1)NC(=O)OCc1ccccc1 [Example 433, Benzyl [(1S)-2-({[6-(3-fluorophenyl)pyridin-3-yl]carbonyl}amino)-1-methylethyl]carbamate]
2 | 11 | Cc1cc(C)nc(CCNC(=O)c2ccc(-c3cccc(F)c3)nc2)n1 [Example 143, N-[2-(4,6-Dimethylpyrimidin-2-yl)ethyl]-6-(3-fluorophenyl)nicotinamide]
3 | 117 | CC(C)N1CCC(CNC(=O)c2ccc(-c3cccc(F)c3)nc2)C1 (centres unmarked) [Example 12, 6-(3-Fluorophenyl)-N-[(1-isopropylpyrrolidin-3-yl)methyl]nicotinamide]
4 | 41.3 | COCCCNC(=O)c1ccc(-c2cccc(F)c2)nc1 [Example 442, 6-(3-Fluorophenyl)-N-(3-methoxypropyl)nicotinamide]
5 | 5.33 | O=C(NCCc1ccc(O)cc1)c1ccc(-c2cccc(F)c2)nc1 [Example 446, 6-(3-Fluorophenyl)-N-[2-(4-hydroxyphenyl)ethyl] nicotinamide]
6 | 222 | O=C(Nc1ccncc1)c1ccc(-c2ccc(F)cc2)nc1 [Example 459, 6-(4-Fluorophenyl)-N-pyridin-4-ylnicotinamide]
7 | 653 | CC(C)CNC(=O)c1ccc(-c2ccc(F)cc2)nc1 [Example 463, 6-(4-Fluorophenyl)-N-isobutylnicotinamide]
8 | 351 | COc1cccc(-c2ccc(C(=O)NC(C)C)cn2)c1 [Example 297, N-Isopropyl-6-(3-methoxyphenyl)nicotinamide]
9 | 16.6 | CC(C)Cc1nnc(CCNC(=O)c2ccc(-c3cccc(F)c3)nc2)o1 [Example 206, 6-(3-Fluorophenyl)-N-[2-(5-isobutyl-1,3,4-oxadiazol-2-yl)ethyl]nicotinamide]
10 | 92.9 | NS(=O)(=O)c1ccc(CNC(=O)c2ccc(-c3cccc(F)c3)nc2)cc1 [Example 413, N-[4-(Aminosulfonyl)benzyl]-6-(3-fluorophenyl)nicotinamide]
11 | 4.82 | O=C(Nc1ccc(F)cc1)c1ccc(-c2ccccc2)nc1 [Example 521, N-(4-Fluorophenyl)-6-phenylnicotinamide]
12 | ≥ 1000 | CC(C)[C@H](N)C(=O)NC(=O)c1ccc(-c2ccc(F)cc2)nc1 [Example 501, 6-(4-Fluorophenyl)-N-L-valylnicotinamide]
13 | ≥ 1000 | COC(=O)[C@H](Cc1ccc(Cl)cc1)NC(=O)c1ccc(-c2ccc(F)cc2)nc1 [Example 509, Methyl 4-chloro-N-{[6-(4-fluorophenyl)pyridin-3-yl]carbonyl}phenylalaninate]
14 | 6.74 | CS(=O)(=O)c1cccc(CNC(=O)c2ccc(-c3cccc(F)c3)nc2)c1 [Example 189, 6-(3-Fluorophenyl)-N-[3-(methylsulfonyl)benzyl] nicotinamide]
15 | 12.1 | O=C(NCCN1CCCCC1)c1ccc(-c2cccc(F)c2)nc1 [Example 195, 6-(3-Fluorophenyl)-N-(2-piperidin-1-ylethyl)nicotinamide]
16 | 82 | COC(=O)CNC(=O)c1ccc(-c2cccc(F)c2)nc1 [Example 173, Methyl N-{[6-(3-fluorophenyl)pyridin-3-yl]carbonyl}glycinate]
17 | 777 | CC(=O)N1CCC(CNC(=O)c2ccc(-c3ccc(F)cc3)nc2)CC1 [Example 257, N-[(1-Acetylpiperidin-4-yl)methyl]-6-(4-fluorophenyl)nicotinamide]
18 | 125 | COc1ccc(C(CNC(=O)c2ccc(-c3cccc(F)c3)nc2)N(C)C)cc1 (centres unmarked) [Example 204, N-[2-(Dimethylamino)-2-(4-methoxyphenyl)ethyl]-6-(3-fluorophenyl)nicotinamide]
19 | 41.8 | O=C(NCC1(O)CCCCC1)c1ccc(-c2cccc(F)c2)nc1 [Example 26, 6-(3-Fluorophenyl)-N-[(1-hydroxycyclohexyl)methyl] nicotinamide]
20 | 672 | NC(CC(=O)NC(=O)c1ccc(-c2ccc(F)cc2)nc1)C1CC1 (centres unmarked) [Example 269, N-(3-Amino-3-cyclopropylpropanoyl)-6-(4-fluorophenyl)nicotinamide]
21 | 10.8 | COc1cccc(OCC(O)CNC(=O)c2ccc(-c3cccc(F)c3)nc2)c1 (centres unmarked) [Example 49, 6-(3-Fluorophenyl)-N-[2-hydroxy-3-(3-methoxyphenoxy)propyl] nicotinamide]
22 | 11.2 | CCOC(=O)CCCCCNC(=O)c1ccc(-c2cccc(F)c2)nc1 [Example 137, Ethyl 6-({[6-(3-fluorophenyl)pyridin-3-yl]carbonyl}amino)hexanoate]

The remaining lines, values behind:

Row | Structure (SMILES) | IC50 [nM]
23 | CN1CCN(CC(NC(=O)c2ccc(-c3cccc(F)c3)nc2)c2ccccc2)CC1 (centres unmarked) [Example 144, 6-(3-Fluorophenyl)-N-[2-(4-methylpiperazin-1-yl)-1-phenylethyl]nicotinamide] | 109
24 | COC(=O)[C@H](Cc1ccc(Cl)cc1)NC(=O)c1ccc(-c2cccc(OC)c2)nc1 [Example 306, Methyl 4-chloro-N-{[6-(3-methoxyphenyl)pyridin-3-yl]carbonyl}phenylalaninate] | 387
25 | O=C(NCCC1CCC(=O)N1CCN1CCNC1=O)c1ccc(-c2ccccc2)nc1 (centres unmarked) [Example 360, N-(2-{5-Oxo-1-[2-(2-oxoimidazolidin-1-yl)ethyl]pyrrolidin-2-yl}ethyl)-6-phenylnicotinamide] | 10.3
26 | CNS(=O)(=O)c1ccc(CNC(=O)c2cnc(-c3cccc(F)c3)c(Cl)c2)cc1 [Example 554, 5-Chloro-6-(3-fluorophenyl)-N-{4-[(methylamino)sulfonyl]benzyl}nicotinamide] | 223
27 | O=C(NCc1noc(C(=O)N2CC[C@@H](O)C2)n1)c1ccc(-c2cccc(F)c2)nc1 [Example 211, 6-(3-Fluorophenyl)-N-[(5-{[(3R)-3-hydroxypyrrolidin-1-yl]carbonyl}-1,2,4-oxadiazol-3-yl)methyl]nicotinamide] | 362
28 | O=C(NCCCn1ncc2ccccc21)c1cnc(-c2cccc(F)c2)c(Cl)c1 [Example 551, 5-Chloro-6-(3-fluorophenyl)-N-[3-(1H-indazol-1-yl)propyl]nicotinamide] | 84.7
29 | Cc1cc(C(F)(F)F)nc(CCNC(=O)c2ccc(-c3cccc(F)c3)nc2)n1 [Example 124, 6-(3-Fluorophenyl)-N-{2-[4-methyl-6-(trifluoromethyl)pyrimidin-2-yl]ethyl}nicotinamide] | 18.3
30 | COc1cccc(-c2ccc(C(=O)NCCN3CCCCC3)cn2)c1 [Example 511, 6-(3-methoxyphenyl)-N-(2-piperidin-1-ylethyl)nicotinamide] | ≥ 1000
31 | COc1cccc(-c2ccc(C(=O)NCc3ccc(Cl)c(Cl)c3)cn2)c1 [Example 483, N-(3,4-Dichlorobenzyl)-6-(3-methoxyphenyl) nicotinamide] | 151
32 | O=C(NC(c1cccc(Cl)c1)c1nn[nH]n1)c1ccc(-c2cccc(F)c2)nc1 (centres unmarked) [Example 123, N-[(3-Chlorophenyl)(2H-tetrazol-5-yl)methyl]-6-(3-fluorophenyl)nicotinamide] | 15.6
33 | COc1ccc(CNC(=O)c2ccc(-c3cccc(OC)c3)nc2)cc1 [Example 303, N-(4-Methoxybenzyl)-6-(3-methoxyphenyl)nicotinamide] | 331
34 | CCOC(=O)CCCNC(=O)c1ccc(-c2cccc(OC)c2)nc1 [Example 301, Ethyl 4-({[6-(3-methoxyphenyl)pyridin-3-yl]carbonyl}amino)butanoate] | 49.9
35 | COc1cc(CCNC(=O)c2ccc(-c3cccc(F)c3)nc2)cc(OC)c1O [Example 21, 6-(3-Fluorophenyl)-N-[2-(4-hydroxy-3,5-dimethoxyphenyl)ethyl] nicotinamide] | 4.94
36 | Cc1ccc2c(c1C)OCCC2NC(=O)c1ccc(-c2cc(F)cc(F)c2)nc1 (centres unmarked) [Example 538, 6-(3,5-Difluorophenyl)-N-(7,8-dimethyl-3,4-dihydro-2H-chromen-4-yl)nicotinamide] | 30.1
37 | CNS(=O)(=O)c1ccc(CNC(=O)c2ccc(-c3cccc(OC)c3)nc2)cc1 [Example 317, 6-(3-Methoxyphenyl)-N-{4-[(methylamino)sulfonyl]benzyl}nicotinamide] | 153
38 | Cc1ccc(CN2CCC(NC(=O)c3ccc(-c4cccc(C)c4)nc3)C2=O)cc1 (centres unmarked) [Example 227, N-[1-(4-Methylbenzyl)-2-oxopyrrolidin-3-yl]-6-(3-methylphenyl)nicotinamide] | 62.2
39 | COc1ccc(CCc2nnc(CNC(=O)c3ccc(-c4cccc(F)c4)nc3)[nH]2)cc1 [Example 31, 6-(3-Fluorophenyl)-N-({5-[2-(4-methoxyphenyl)ethyl]-4H-1,2,4-triazol-3-yl}methyl)nicotinamide] | 35
40 | O=C(NCCN1CCCC1)c1ccc(-c2ccccc2)nc1 [Example 358, 6-Phenyl-N-(2-pyrrolidin-1-ylethyl)nicotinamide] | 199
41 | O=C(Nc1cccn(Cc2ccccc2)c1=O)c1ccc(-c2ccccc2)nc1 [Example 402, N-(1-Benzyl-2-oxo-1,2-dihydropyridin-3-yl)-6-phenylnicotinamide] | 8
